Results reported in article PMC7993394 (Journal of Enzyme Inhibition and Medicinal Chemistry, 2021).

biological target: T1, BpHldC (Burkholderia pseudomallei, UniProt Q63XZ4); test: biochemical
T1 construct: gene BPSL0395
T1 sequence (Q63XZ4 1-161 limits assumed): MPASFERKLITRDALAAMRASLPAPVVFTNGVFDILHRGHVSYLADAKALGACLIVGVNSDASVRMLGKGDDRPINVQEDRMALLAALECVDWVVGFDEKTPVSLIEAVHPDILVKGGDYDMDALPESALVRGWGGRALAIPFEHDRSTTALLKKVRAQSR

| Compound | IC50 |
| --- | --- |
| CCOC(=O)c1sc(NC(=O)CSc2nnc(Cc3ccccc3)o2)c(C#N)c1C [compound 7929959, ethyl 5-({[(5-benzyl-1,3,4-oxadiazol-2-yl)thio]acetyl}amino)-4-cyano-3-methyl-2-thiophenecarboxylate] | 10.9 µM |
| CCOC(=O)c1sc(NC(=O)CSc2nnc(-c3ccc(Cl)cc3)o2)c(C#N)c1C [compound 7933420, ethyl 5-[({[5–(4-chlorophenyl)-1,3,4-oxadiazol-2-yl]thio}acetyl)amino]-4-cyano-3-methyl-2-thiophene carboxylate] | 17.5 µM |
| CCOC(=O)c1sc(NC(=O)CSc2nnc(-c3ccccc3OCC)o2)c(C#N)c1C [compound 7991890, ethyl 4-cyano-5-[({[5–(2-ethoxyphenyl)-1,3,4-oxadiazol-2-yl]thio}acetyl)amino]-3-methyl-2-thiophenecarboxylate] | 47.1 µM |
